Laboratory results: ChEMBL document CHEMBL5463729, “Data for DCP probe BAY 1753011” (2023)

Experiments:
Details in all cases: Compound concentration 10.0 uM
[1] = molecular target: Serine/threonine-protein kinase MRCK gamma (Homo sapiens) (UniProt Q6DT37); test: Inhibition of MRCKgamma(h) at 10.0 µM in the Eurofins Kinase panel
[2] = molecular target: Mitogen-activated protein kinase 9 (Homo sapiens) (UniProt P45984); test: Inhibition of JNK2alpha2(h) at 10.0 µM in the Eurofins Kinase panel
[3] = molecular target: Homeodomain-interacting protein kinase 2 (Homo sapiens) (UniProt Q9H2X6); test: Inhibition of HIPK2(h) at 10.0 µM in the Eurofins Kinase panel
[4] = molecular target: Dual specificity protein kinase CLK2 (Homo sapiens) (UniProt P49760); test: Inhibition of CLK2(h) at 10.0 µM in the Eurofins Kinase panel
[5] = molecular target: Serine/threonine-protein kinase Nek11 (Homo sapiens) (UniProt Q8NG66); test: Inhibition of NEK11(h) at 10.0 µM in the Eurofins Kinase panel
[6] = molecular target: Non-receptor tyrosine-protein kinase TYK2 (Homo sapiens) (UniProt P29597); test: Inhibition of TYK2(h) at 10.0 µM in the Eurofins Kinase panel
[7] = molecular target: Protein kinase C epsilon type (Homo sapiens) (UniProt Q02156); test: Inhibition of PKCepsilon(h) at 10.0 µM in the Eurofins Kinase panel
[8] = molecular target: NUAK family SNF1-like kinase 1 (Homo sapiens) (UniProt O60285); test: Inhibition of ARK5(h) at 10.0 µM in the Eurofins Kinase panel
[9] = molecular target: Tyrosine-protein kinase HCK (Homo sapiens) (UniProt P08631); test: Inhibition of Hck(h) activated at 10.0 µM in the Eurofins Kinase panel
[10] = molecular target: Serine/threonine-protein kinase MARK1 (Homo sapiens) (UniProt Q9P0L2); test: Inhibition of MARK1(h) at 10.0 µM in the Eurofins Kinase panel
[11] = molecular target: Dual specificity protein kinase CLK3 (Homo sapiens) (UniProt P49761); test: Inhibition of CLK3(h) at 10.0 µM in the Eurofins Kinase panel
[12] = molecular target: Serine/threonine-protein kinase PAK 5 (Homo sapiens) (UniProt Q9P286); test: Inhibition of PAK5(h) at 10.0 µM in the Eurofins Kinase panel
Chain of Serine/threonine-protein kinase PAK 5 (Homo sapiens) (Q9P286 whole entry, looked up): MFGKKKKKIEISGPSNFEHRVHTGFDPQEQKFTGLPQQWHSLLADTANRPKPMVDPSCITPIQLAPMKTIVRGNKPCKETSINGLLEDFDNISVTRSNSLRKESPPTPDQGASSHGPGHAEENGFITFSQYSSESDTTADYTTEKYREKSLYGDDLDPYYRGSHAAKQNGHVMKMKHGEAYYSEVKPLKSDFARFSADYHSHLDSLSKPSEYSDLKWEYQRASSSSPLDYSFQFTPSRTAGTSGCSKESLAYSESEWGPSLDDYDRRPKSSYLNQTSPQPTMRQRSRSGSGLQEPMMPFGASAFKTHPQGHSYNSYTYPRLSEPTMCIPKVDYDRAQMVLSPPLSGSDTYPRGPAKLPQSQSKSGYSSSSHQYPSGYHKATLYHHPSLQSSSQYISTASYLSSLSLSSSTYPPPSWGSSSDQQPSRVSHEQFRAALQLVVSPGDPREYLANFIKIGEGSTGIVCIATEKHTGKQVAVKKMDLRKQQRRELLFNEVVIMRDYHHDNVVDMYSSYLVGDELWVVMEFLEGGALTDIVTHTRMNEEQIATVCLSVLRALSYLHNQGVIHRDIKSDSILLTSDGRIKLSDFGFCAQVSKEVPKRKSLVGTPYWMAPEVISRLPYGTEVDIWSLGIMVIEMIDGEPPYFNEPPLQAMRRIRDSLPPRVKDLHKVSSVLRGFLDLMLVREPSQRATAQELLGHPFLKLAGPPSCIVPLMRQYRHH

[13] = molecular target: Receptor-type tyrosine-protein kinase FLT3 (Homo sapiens) (UniProt P36888); test: Inhibition of Flt3(h) at 10.0 µM in the Eurofins Kinase panel
[14] = molecular target: Serine/threonine-protein kinase WNK4 (Homo sapiens) (UniProt Q96J92); test: Inhibition of WNK4(h) at 10.0 µM in the Eurofins Kinase panel
[15] = molecular target: PI3-kinase p110-alpha/p85-alpha (Homo sapiens) (UniProt P27986+P42336); test: Inhibition of PI3 Kinase (p110a/p85a)(h) at 10.0 µM in the Eurofins Kinase panel; type: protein-complex assay
[16] = molecular target: [Pyruvate dehydrogenase (acetyl-transferring)] kinase isozyme 4, mitochondrial (Homo sapiens) (UniProt Q16654); test: Inhibition of PDHK4(h) at 10.0 µM in the Eurofins Kinase panel
[17] = molecular target: MAP kinase-activated protein kinase 3 (Homo sapiens) (UniProt Q16644); test: Inhibition of MAPKAP-K3(h) at 10.0 µM in the Eurofins Kinase panel
Chain of MAP kinase-activated protein kinase 3 (Homo sapiens) (Q16644 whole entry, looked up): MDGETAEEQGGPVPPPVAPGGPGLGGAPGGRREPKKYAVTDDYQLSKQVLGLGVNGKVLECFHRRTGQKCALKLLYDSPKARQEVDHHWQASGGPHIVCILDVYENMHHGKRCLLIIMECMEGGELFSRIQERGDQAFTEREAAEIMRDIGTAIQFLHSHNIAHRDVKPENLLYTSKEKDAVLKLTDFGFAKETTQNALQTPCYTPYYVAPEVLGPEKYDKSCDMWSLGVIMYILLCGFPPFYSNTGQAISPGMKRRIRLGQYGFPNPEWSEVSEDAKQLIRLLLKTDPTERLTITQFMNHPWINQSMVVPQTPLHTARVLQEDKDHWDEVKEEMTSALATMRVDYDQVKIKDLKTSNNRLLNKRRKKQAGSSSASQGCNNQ

[18] = molecular target: T1, cGMP-dependent protein kinase 1 (Homo sapiens) (UniProt Q13976); test: Inhibition of PKG1alpha(h) at 10.0 µM in the Eurofins Kinase panel
T1 sequence (whole entry): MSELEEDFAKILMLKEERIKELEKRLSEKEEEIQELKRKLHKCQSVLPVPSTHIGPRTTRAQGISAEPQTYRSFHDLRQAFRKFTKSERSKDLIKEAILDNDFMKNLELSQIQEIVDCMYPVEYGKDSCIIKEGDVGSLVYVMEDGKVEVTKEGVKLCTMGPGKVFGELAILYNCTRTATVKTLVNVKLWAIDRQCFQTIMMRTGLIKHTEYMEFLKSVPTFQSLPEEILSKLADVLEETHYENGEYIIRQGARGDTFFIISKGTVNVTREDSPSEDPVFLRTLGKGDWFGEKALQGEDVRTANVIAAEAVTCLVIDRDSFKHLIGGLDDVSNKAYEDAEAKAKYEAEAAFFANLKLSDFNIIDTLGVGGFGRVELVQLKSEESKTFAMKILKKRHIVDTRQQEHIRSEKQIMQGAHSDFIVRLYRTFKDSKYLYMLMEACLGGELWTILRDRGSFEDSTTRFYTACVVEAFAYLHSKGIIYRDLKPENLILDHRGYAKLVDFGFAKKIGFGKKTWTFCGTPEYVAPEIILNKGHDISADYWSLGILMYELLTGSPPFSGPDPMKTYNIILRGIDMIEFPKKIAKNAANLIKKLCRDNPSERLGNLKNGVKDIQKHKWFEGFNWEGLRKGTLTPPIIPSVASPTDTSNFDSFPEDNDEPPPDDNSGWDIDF

[19] = molecular target: Alpha-1B adrenergic receptor (Homo sapiens) (UniProt P35368)
Chain of Alpha-1B adrenergic receptor (Homo sapiens) (P35368 whole entry): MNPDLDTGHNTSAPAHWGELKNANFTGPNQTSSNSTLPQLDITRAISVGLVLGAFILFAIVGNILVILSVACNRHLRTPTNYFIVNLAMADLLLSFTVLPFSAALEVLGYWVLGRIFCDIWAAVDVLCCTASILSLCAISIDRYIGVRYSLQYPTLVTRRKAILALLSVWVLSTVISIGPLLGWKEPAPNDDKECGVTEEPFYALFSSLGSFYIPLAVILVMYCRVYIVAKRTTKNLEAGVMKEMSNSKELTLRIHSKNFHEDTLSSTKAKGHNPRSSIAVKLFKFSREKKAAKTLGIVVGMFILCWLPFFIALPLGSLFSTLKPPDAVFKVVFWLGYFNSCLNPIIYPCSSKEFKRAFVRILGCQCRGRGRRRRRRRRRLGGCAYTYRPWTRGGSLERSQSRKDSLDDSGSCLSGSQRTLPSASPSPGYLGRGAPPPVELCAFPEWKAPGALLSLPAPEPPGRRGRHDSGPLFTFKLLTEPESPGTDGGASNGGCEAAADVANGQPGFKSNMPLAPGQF

[20] = molecular target: Serine/threonine-protein kinase NIM1 (Homo sapiens) (UniProt Q8IY84); test: Inhibition of NIM1(h) at 10.0 µM in the Eurofins Kinase panel
Chain of Serine/threonine-protein kinase NIM1 (Homo sapiens) (Q8IY84 whole entry): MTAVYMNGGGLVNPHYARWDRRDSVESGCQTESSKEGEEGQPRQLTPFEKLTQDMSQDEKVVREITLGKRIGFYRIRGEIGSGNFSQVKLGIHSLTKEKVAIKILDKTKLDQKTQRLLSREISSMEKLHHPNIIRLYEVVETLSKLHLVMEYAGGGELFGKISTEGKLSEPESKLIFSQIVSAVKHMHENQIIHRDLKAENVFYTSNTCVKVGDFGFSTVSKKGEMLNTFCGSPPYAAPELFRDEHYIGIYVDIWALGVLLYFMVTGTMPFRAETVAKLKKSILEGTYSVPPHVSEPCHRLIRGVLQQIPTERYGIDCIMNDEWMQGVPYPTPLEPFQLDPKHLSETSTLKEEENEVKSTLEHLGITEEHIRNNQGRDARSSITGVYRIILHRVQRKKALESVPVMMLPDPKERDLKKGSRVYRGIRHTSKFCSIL

[21] = molecular target: Serine/threonine-protein kinase A-Raf (Homo sapiens) (UniProt P10398); test: Inhibition of A-Raf(h) at 10.0 µM in the Eurofins Kinase panel
[22] = molecular target: Serine/threonine-protein kinase TBK1 (Homo sapiens) (UniProt Q9UHD2); test: Inhibition of TBK1(h) at 10.0 µM in the Eurofins Kinase panel
[23] = molecular target: Serine/threonine-protein kinase LATS1 (Homo sapiens) (UniProt O95835); test: Inhibition of LATS1(h) at 10.0 µM in the Eurofins Kinase panel
[24] = molecular target: Rho-associated protein kinase 1 (Homo sapiens) (UniProt Q13464); test: Inhibition of ROCK-I(h) at 10.0 µM in the Eurofins Kinase panel
[25] = molecular target: MAP/microtubule affinity-regulating kinase 3 (Homo sapiens) (UniProt P27448); test: Inhibition of MARK3(h) at 10.0 µM in the Eurofins Kinase panel
[26] = molecular target: 5-hydroxytryptamine receptor 2B (Homo sapiens) (UniProt P41595)
Chain of 5-hydroxytryptamine receptor 2B (Homo sapiens) (P41595 whole entry): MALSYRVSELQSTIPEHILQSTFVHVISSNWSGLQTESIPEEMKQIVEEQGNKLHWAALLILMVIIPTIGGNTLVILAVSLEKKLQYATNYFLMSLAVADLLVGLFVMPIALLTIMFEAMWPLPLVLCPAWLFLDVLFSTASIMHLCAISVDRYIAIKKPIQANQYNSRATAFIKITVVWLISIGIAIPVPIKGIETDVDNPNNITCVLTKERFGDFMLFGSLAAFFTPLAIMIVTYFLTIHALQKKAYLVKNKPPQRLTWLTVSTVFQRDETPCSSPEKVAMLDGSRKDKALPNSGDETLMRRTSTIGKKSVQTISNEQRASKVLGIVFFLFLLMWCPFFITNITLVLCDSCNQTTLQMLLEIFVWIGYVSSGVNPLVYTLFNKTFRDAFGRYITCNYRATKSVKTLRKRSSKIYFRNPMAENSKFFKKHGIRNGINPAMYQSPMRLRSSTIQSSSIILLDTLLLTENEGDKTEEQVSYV

[27] = molecular target: Bone morphogenetic protein receptor type-2 (Homo sapiens) (UniProt Q13873); test: Inhibition of BMPR2(h) at 10.0 µM in the Eurofins Kinase panel
[28] = molecular target: Maternal embryonic leucine zipper kinase (Homo sapiens) (UniProt Q14680); test: Inhibition of MELK(h) at 10.0 µM in the Eurofins Kinase panel
Chain of Maternal embryonic leucine zipper kinase (Homo sapiens) (Q14680 whole entry, looked up, the tested form may be a part): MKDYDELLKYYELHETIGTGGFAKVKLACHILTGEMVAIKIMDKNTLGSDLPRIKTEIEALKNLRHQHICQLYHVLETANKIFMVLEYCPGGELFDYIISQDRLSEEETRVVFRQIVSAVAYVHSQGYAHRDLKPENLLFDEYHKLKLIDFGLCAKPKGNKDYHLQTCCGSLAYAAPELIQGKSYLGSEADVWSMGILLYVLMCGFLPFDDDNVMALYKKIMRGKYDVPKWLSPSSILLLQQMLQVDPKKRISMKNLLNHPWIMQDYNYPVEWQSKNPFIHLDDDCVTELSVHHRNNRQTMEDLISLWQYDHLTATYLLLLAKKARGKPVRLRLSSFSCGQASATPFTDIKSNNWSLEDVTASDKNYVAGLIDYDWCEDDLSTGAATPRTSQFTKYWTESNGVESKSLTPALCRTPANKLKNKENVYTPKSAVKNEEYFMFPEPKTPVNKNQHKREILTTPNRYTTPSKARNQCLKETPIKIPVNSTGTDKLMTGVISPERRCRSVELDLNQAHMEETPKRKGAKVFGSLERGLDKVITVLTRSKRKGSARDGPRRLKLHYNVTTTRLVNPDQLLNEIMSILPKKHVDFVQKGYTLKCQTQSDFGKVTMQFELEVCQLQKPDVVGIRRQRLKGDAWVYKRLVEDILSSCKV

[29] = molecular target: Phosphatidylinositol 3-kinase C2 domain-containing subunit gamma (Homo sapiens) (UniProt O75747); test: Inhibition of PI3KC2g(h) at 10.0 µM in the Eurofins Kinase panel
Rattus norvegicus = species: Rattus norvegicus

Chain of Serine/threonine-protein kinase MRCK gamma (Homo sapiens) (Q6DT37 whole entry): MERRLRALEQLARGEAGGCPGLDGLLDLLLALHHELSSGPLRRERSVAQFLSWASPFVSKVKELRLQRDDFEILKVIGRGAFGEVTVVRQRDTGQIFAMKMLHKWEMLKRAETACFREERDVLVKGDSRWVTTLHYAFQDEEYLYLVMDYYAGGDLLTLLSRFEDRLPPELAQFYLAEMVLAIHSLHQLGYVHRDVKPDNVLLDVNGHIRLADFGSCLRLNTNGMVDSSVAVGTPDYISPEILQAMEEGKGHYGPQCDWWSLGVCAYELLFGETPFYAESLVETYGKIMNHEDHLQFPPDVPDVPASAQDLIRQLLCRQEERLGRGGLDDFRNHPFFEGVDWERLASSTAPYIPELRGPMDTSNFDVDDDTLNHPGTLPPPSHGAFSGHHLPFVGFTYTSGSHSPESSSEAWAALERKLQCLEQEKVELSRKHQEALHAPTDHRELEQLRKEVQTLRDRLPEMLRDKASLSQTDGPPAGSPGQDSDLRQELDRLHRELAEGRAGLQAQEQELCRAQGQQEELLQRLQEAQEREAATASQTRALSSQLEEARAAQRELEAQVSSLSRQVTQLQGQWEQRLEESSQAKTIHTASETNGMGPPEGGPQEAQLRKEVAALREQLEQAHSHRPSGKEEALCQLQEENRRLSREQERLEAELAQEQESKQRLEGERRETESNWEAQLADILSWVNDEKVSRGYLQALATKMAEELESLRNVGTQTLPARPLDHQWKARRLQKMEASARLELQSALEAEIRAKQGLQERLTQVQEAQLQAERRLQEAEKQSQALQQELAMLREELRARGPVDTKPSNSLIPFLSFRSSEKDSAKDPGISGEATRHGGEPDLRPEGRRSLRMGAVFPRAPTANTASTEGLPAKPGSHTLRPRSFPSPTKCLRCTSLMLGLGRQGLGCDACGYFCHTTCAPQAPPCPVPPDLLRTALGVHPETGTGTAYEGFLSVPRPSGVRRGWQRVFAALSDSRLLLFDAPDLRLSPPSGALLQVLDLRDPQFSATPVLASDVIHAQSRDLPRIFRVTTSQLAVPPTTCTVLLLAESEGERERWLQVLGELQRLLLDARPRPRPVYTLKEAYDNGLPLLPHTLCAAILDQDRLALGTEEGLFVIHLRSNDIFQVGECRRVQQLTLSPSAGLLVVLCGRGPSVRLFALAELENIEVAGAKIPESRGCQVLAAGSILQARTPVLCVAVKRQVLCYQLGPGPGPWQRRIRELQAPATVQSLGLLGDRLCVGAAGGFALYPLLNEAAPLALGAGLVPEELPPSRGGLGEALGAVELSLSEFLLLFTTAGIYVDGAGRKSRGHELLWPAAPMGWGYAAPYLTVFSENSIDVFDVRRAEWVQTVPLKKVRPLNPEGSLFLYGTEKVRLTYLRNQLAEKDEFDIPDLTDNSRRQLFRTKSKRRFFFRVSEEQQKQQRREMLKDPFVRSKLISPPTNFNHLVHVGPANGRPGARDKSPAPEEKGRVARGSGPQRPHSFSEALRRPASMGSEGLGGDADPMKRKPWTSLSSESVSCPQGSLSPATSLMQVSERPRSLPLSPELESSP

Structure (SMILES) | inhibition [1] [%] | inhibition [2] [%] | inhibition [3] [%] | inhibition [4] [%] | inhibition [5] [%] | inhibition [6] [%] | inhibition [7] [%] | inhibition [8] [%] | inhibition [9] [%] | inhibition [10] [%] | inhibition [11] [%] | inhibition [12] [%] | inhibition [13] [%] | inhibition [14] [%] | inhibition [15] [%] | inhibition [16] [%] | inhibition [17] [%] | inhibition [18] [%] | inhibition [19] [%] | inhibition [20] [%] | also measured
O=c1n(Cc2cncn2-c2cccc(Cl)c2)nc(-c2ccc(Cl)cc2)n1C[C@H](O)C(F)(F)F | 1.06 | 2.28 | -9.36 | -2.19 | 15.8 | 5.83 | 11 | -2.39 | -9.4 | 2.63 | 1.4 | 1.49 | -4.56 | 2.45 | -1.29 | 5.68 | -3.79 | -0.21 | -2.47 | 3.02 | inhibition [21]: 2.57%; inhibition [22]: 7.19%; inhibition [23]: -2.66%; inhibition [24]: -3.19%; inhibition [25]: -3.59%; inhibition [26]: 12%; inhibition [27]: 14.4%; inhibition [28]: 8.95%; inhibition [29]: 6.58%; inhibition (Rattus norvegicus): 9%
C[C@H](O)c1nc(Cn2nc(-c3ccc(Cl)cc3)n(C[C@H](O)C(F)(F)F)c2=O)nn1-c1cccc(Cl)c1 [PECAVAPTAN] | 2.11 | -1.69 | -6.27 | -2.64 | 16.2 | 8.75 | 19.1 | -3.57 | -3.97 | 0.06 | -0.38 | -3.61 | 0.7 | 10.5 | -2.88 | 9.02 | -7.04 | -5.35 | -5.25 | 5.79 | inhibition [21]: 1.05%; inhibition [22]: -2.96%; inhibition [23]: -5.36%; inhibition [24]: -2.67%; inhibition [25]: -2.13%; inhibition [26]: 52%; inhibition [27]: 11.1%; inhibition [28]: 10.8%; inhibition [29]: 6.41%; inhibition (Rattus norvegicus): 8%
